Reference: publication PMC5460289, “Identification of New Shikonin Derivatives as Antitumor Agents Targeting STAT3 SH2 Domain” (Scientific Reports, 2017)

Experiments:
Format in all cases: cell-based, human
[1] = tested on: STAT3-TATA-Luc reporter in MDA-MB-231 cells; assay: STAT3 dual-luciferase reporter assay; conditions: MDA-MB-231, 24 h treatment
Method: Figure 3 MDA-MB-231 cells were transfected with STAT3-TATA-Luc reporter and Renilla luciferase reporter plasmids. After 24 h, cells were treated with indicated concentrations of PMM-172 or Stattic for 24 h and then luciferase intensity was measured. Results are fold change ± SD of three independent experiments, *P < 0.05, **P < 0.01.
Cells were seeded in 24 well plates and transiently transfected together with STAT3 reporter plasmid 4 × M67 pTATA TK-Luc (0.2 μg/per well, Addgene, USA) and Renilla luciferase control reporter plasmid pRL-CMV (0.1 μg/per well, promega, USA), using lipofectamine 2000 (Invitrogen, USA). Then the cells were incubated with complete medium for 24 h with PMM-172 or Stattic. Following the treatment, the cells were harvested in 100 μL of passive lysis buffer (Promega, USA) in each well. A 25 μL aliquot of cell lysate was subjected to a luciferase assay by using the dual-luciferase assay kit (Promega, USA). STAT3 luciferase activity was measured by EnVision Mutilabel Reader (Perkin Elmer, USA). Relative luciferase activity was calculated after the activity of STAT3-dependent firefly luciferase had been normalized to that of Renilla luciferase. All values are expressed as - fold induction relative to basal activity.

[2] = tested on: STAT3 nuclear localization in MDA-MB-231 cells; assay: STAT3 nuclear localization (cytoplasmic and nuclear extracts, Western blot); conditions: MDA-MB-231, 24 h
Method: It is known that the dimerization of STAT3 is induced by the phosphorylation at residue Tyr 705, which then leads to its nuclear translocation. Herein, we investigated the effect of PMM-172 and Stattic on STAT3 nuclear translocation. The cytoplasmic and nuclear proteins of treated cells were extracted and the expressions of STAT3 in both fractions were examined.
Figure 7 MDA-MB-231 cells were treated with indicated concentrations of PMM-172 or Stattic for 24 h, the expression levels of STAT3 in cytoplasmic and nuclear extracts were examined and relative expression levels were analyzed by Image J software. β-actin and Lamin B1 served as markers of cytoplasmic and nuclear extractions, respectively. […] (C) MCF-10A cells were treated with the indicated concentrations of PMM-172 for 24 h. PMM-172 had no effect on the level of the pSTAT3 level in MCF-10A cells. […] Data were shown as mean ± SD from three independent experiments, **P < 0.01. Cropped blots/gels were used in the figure and the gels had been run under the same experimental conditions; the full-length blots/gels are presented in Supplementary Figure S3.
To examine the relative proportion of STAT3 in the cytoplasm and nucleus, cytoplasmic and nuclear extracts were prepared. In brief, control and treated cells were collected and suspended in a buffer containing 10 mM HEPES (pH 7.9), 10 mM KCl, 0.1 mM EDTA (pH 8.0), 0.1 mM EGTA (pH 7.0), 1 mM DTT, 0.5 mM PMSF, 2 μg/mL leupeptin, 2 μg/mL aprotonin, 0.5 mg/mL benzamidine. After 15 min, NP-40 (0.25%) was added, and cell lysate was vortexed for 10 s and centrifuged at 10000 rmp at 4 °C for 1 min. […] The protein content in the nuclear and cytoplasmic fractions was determined using a Pierce BCA protein assay kit.
Cells were rinsed twice with cold PBS and then lysed with RIPA buffer containing a protease inhibitor mixture at 1:100 dilution on ice for 30 min. Insoluble components of cell lysates were removed by centrifugation (4 °C, 12000 rmp, 10 min), and protein concentrations were measured using a Pierce BCA protein assay kit. […]

MDA-MB-468 = assay: MTT anti-proliferation assay; conditions: 24 h treatment
Method: (§1) Initial experiments were performed for evaluation of growth inhibition by the new compounds against six human breast cancer cell lines, including MCF-7 (ER+/PR+, HER-2-), BT474 (ER+/PR+, HER-2+), SKBR-3 (ER-/PR-/HER-2+), MDA-MB-436 (ER-/PR-/HER-2-), MDA-MB-231 (ER-/PR-/HER-2-), MDA-MB-468 (ER-/PR-/HER-2-) and non-tumorigenic MCF-10A cells. After 24 h treatment by the obtained compounds, the inhibition was assessed and the IC50 was summarized. […] Subsequently, the inhibition of STAT3 activation by PMM-172 and Stattic was evaluated using a dual-luciferase assay.
(§2) The anti-proliferative activities of the prepared compounds against MCF-7 (ER+/PR+, HER-2-), BT474 (ER+/PR+, HER-2+), SKBR-3 (ER-/PR-/HER-2+), MDA-MB-436 (ER-/PR-/HER-2-), MDA-MB-231 (ER-/PR-/HER-2-), MDA-MB-468 (ER-/PR-/HER-2-) and non-tumorigenic MCF-10A cell lines were evaluated using a standard (MTT)-based colorimetric assay with some modification. Cell lines were grown to log phase in DMEM supplemented with 10% fetal bovine serum. Cell suspensions were prepared and 100 μL/well dispensed into 96-well plates giving 10^4 cells/well. The subsequent incubation was permitted at 37 °C, 5% CO2 atmosphere for 24 h to allow the cells to reattach. Subsequently, cells were treated with the target compounds at increasing concentrations in the presence of 10% FBS for 24 h. Then, cell viability was assessed by the conventional 3-(4, 5-dimethylthiazol-2-yl)-2, 5-diphenyltetrazolium bromide (MTT) reduction assay and carried out strictly according to the manufacturer instructions. The absorbance (OD570) was read on an ELISA reader (Tecan, Austria). In all experiments, three replicate wells were used for each drug concentration. Each assay was carried out for at least three times.

MDA-MB-231 = assay: MTT anti-proliferation assay; conditions: 24 h treatment
Method: as §1, §2

MDA-MB-436 = assay: MTT anti-proliferation assay; conditions: 24 h treatment
Method: as §1, §2

MCF-7 = assay: MTT anti-proliferation assay; conditions: 24 h treatment
Method: as §1, §2

BT-474 = assay: MTT anti-proliferation assay; conditions: 24 h treatment
Method: as §1, §2

SKBR-3 = assay: MTT anti-proliferation assay; conditions: 24 h treatment
Method: as §1, §2

[3] = tested on: pSTAT3 (Tyr705) in MDA-MB-231 cells; assay: Western blot of constitutive STAT3 activation
From the text: It has been well recognized that the aberrant activation of STAT3 contributes to malignant transformation and tumorgenesis, and its activity is ultimately dependent upon phosphorylation of residue Y705. […] In this study, the ability of PMM-172 and Stattic inhibiting the constitutive STAT3 activation in MDA-MB-231 cells was investigated. […] We further measured STAT3 phosphorylation at Tyr705 in a time-course experiment.
Figure 6 (A) PMM-172 suppressed constitutive pSTAT3 (Tyr705) in a dose-dependent manner. (B) PMM-172 suppressed constitutive pSTAT3 (Tyr705) in a time-dependent manner. (C) MDA-MB-231 cells were treated with IL-6 (20 ng/mL) or vehicle for 30 min, with or without pretreatment with PMM-172 (2 μM) for 24 h. PMM-172 inhibited IL-6 induced phosphorylation of STAT3. (D) Stattic suppressed constitutive pSTAT3 (Tyr705) in a dose-dependent manner. (E) Stattic suppressed constitutive pSTAT3 (Tyr705) in a time-dependent manner. (F) Tyrosine phosphorylation of two STAT family proteins STAT1 and STAT5 were detected with specific antibodies. […] Data were shown as mean ± SD of three independent experiments. *P < 0.05, **P < 0.01. Cropped blots/gels were used in the figure and the gels had been run under the same experimental conditions; the full-length blots/gels are presented in Supplementary Figure S2.
Cells were rinsed twice with cold PBS and then lysed with RIPA buffer containing a protease inhibitor mixture at 1:100 dilution on ice for 30 min. Insoluble components of cell lysates were removed by centrifugation (4 °C, 12000 rmp, 10 min), and protein concentrations were measured using a Pierce BCA protein assay kit. Proteins were separated by sodium dodecyl sulfate-polyacrylamide gel electrophoresis (SDS-PAGE) and transferred from the gel onto polyvinylidene difluoride (PVDF) membranes. The membranes were blocked with 5% skim milk in TBST buffer for 1 h at room temperature, and then incubated with corresponding primary antibodies diluted in 5% milk-TBST solution at 4 °C with gentle shaking overnight. After washing five times (5 min each), corresponding HRP-conjugated secondary antibodies were incubated for 1 h at room temperature. Immunoreactive bands were visualized using an ECL detection kit (Invitrogen, USA) following the manufacturer’s instruction.

In the case of `O=[N+]([O-])c1ccc2c(c1)S(=O)(=O)C=C2` [Stattic, reference compound], the STAT3 luciferase activity [1] is reported as “only a slight advantage over PMM-172”, the “level of STAT3 in the nuclear fraction” value [2] is reported as “suppressed STAT3 nuclear localization” and the IC50 (MDA-MB-468) is reported as 3.54 ± 0.42 µM. It also gave an IC50 (MDA-MB-231) of 3.18 ± 0.33 µM, an IC50 (MDA-MB-436) of 3.76 ± 0.5 µM and an IC50 (MCF-7) of 5.85 ± 0.72 µM. For the same molecule, the IC50 (BT-474) was 5.11 ± 0.57 µM, the IC50 (SKBR-3) was 3.39 ± 0.56 µM and the STAT3 expression [3] was “had no effect on STAT3 expression”. The “STAT3 phosphorylation at Tyr705, time-course” value [3] was “reduced with the longer treatment” and the “level of Y705-phosphorylated STAT3 (constitutive), dose series” value [3] was “could reduce the level of Y705-phosphorylated STAT3 in MDA-MB-231 cells in a dose-dependent manner”.
